Blank lines part the entries; values can stand above or below the compound they belong to.
Assays:
[1] = molecular target: A2A adenosine receptor (A2AAR) (Homo sapiens, UniProt P29274); assay: A2AAR competition binding; conditions: for better A2AAR binding affinity than compound 1: relative to compound 1
human recombinant MAO-B = molecular target: T1, human recombinant MAO-B (Homo sapiens, UniProt P27338); assay: MAO-B enzyme assay; format: biochemical; conditions: Triton X-100, 0.01%; colloidal aggregation control
T1 sequence (P27338 1-520): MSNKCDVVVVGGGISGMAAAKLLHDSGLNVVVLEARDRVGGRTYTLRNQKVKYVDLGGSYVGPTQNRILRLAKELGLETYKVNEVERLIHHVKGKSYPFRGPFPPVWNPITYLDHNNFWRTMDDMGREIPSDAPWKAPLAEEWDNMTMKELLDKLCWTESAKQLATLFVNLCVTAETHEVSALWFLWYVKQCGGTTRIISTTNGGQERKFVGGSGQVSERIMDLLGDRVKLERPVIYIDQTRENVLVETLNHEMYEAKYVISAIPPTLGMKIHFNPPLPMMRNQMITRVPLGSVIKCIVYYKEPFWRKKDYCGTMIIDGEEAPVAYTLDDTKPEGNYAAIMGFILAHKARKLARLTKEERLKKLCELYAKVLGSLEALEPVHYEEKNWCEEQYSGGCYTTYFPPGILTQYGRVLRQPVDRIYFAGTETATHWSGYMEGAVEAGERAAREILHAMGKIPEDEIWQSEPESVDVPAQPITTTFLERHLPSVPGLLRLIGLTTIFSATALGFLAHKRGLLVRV

human A2A receptors = human A2A receptors (Homo sapiens, UniProt P29274); assay: Functional cAMP accumulation assay with NECA; format: cell-based; conditions: response to agonist NECA in presence of compound; CHO cells
human A2A receptors, sequence (P29274 whole entry): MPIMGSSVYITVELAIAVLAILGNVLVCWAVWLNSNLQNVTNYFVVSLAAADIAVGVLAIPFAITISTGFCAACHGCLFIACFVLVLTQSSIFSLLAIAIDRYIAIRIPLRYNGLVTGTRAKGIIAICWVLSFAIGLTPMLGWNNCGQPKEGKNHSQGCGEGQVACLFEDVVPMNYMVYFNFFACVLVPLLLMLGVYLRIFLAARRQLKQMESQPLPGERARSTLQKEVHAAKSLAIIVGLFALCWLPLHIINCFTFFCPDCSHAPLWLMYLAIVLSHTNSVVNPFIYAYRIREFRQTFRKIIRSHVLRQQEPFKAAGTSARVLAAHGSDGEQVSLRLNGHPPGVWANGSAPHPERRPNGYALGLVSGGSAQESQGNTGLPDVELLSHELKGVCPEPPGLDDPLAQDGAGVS

A2AAR = conditions: read-out: A2AAR Ki; cited from earlier work
MAO-B = conditions: read-out: MAO-B IC50; cited from earlier work
[2] = test system: differentiated dopaminergic neuronal-like SH-SY5Y cells; assay: Cell viability; format: cell-based, human; conditions: 20 µM 6-OHDA, 24 h; resazurin

A2A adenosine receptor (A2AAR), sequence (P29274 whole entry): as above

SMILES: O=C(Nc1nc2ccccc2[nH]1)c1ccccc1 [Compound 1]
change in MAO-B IC50 values in the presence of detergent (human recombinant MAO-B): no significant changes

SMILES: COc1cccc(COC(=O)c2nn(-c3ccccc3)nc2N)c1 [Compound 3]
efficacy at the A2AAR in cAMP accumulation assay (human A2A receptors): antagonists

SMILES: Cn1c(=O)c2c(nc(/C=C/c3cccc(Cl)c3)n2C)n(C)c1=O [CSC, 8-(3-chlorostyryl)caffeine]
Ki (A2AAR): 38 nM
IC50 (MAO-B): 18 nM

SMILES: NCCc1cc(O)c(O)cc1O [Compound 6-OHDA, 6-hydroxydopamine]
reduction in cell viability [2]: 37 ± 1.3%

SMILES: O=C(Nc1nc2cccc(Cl)c2[nH]1)c1ccccc1 [Compound 1a]
better A2AAR binding affinity than compound 1 [1]: 27 fold
efficacy at the A2AAR in cAMP accumulation assay (human A2A receptors): antagonists

SMILES: COc1cccc(CO)c1 [Compound 3k]
activity at the A2AAR (in words) [1]: inactive

SMILES: COc1cccc2nc(NC(=O)c3ccccc3)[nH]c12 [Compound 1b]
better A2AAR binding affinity than compound 1 [1]: 5 fold

The remaining lines, values ahead:

activity at the A2AAR (in words) [1]: inactive
SMILES: Nc1nn(-c2ccccc2)nc1C(=O)O [Compound 3j]

change in MAO-B IC50 values in the presence of detergent (human recombinant MAO-B): no significant changes
SMILES: Cc1ccc(COC(=O)c2nn(-c3ccccc3)nc2N)cc1 [Compound 3a]

— article PMC6716773 (Journal of Medicinal Chemistry, 2018)
